In patent US20220356186A1, “PERK INHIBITING PYRROLOPYRIMIDINE COMPOUNDS” (HiberCell, Inc., priority 2019, published 2022):
Where two headings read alike, the source gives them in different places.

Tests used:
[1] = tested on: GFP-eIF2α in HEK293 cells; experiment: PERK cellular assay, TR-FRET in HEK293-EGFP-eIF2a cells after tunicamycin-induced ER stress; format: cell-based; settings: HEK293-EGFP-eIF2a cells, tunicamycin 2 hours, read-out: Cellular eIF2α IC50
Description: Stable cell lines were created in HEK293 cells using lentiviral particles harboring an expression vector for GFP-eIF2α. Cells were selected using puromycin and enriched using fluorescence activated cell sorting against GFP. HEK293-EGFP-eIF2a cells were plated at 5000 cells/well in 384-well assay plates and incubated overnight at 37° C., 5% CO2. Inhibitor compounds were added to the wells by Echo acoustic dispensing and incubated for 30 minutes at 37° C., 5% CO2 prior to induction of ER stress by addition of tunicamycin to […] for 2 hours. Cells were lysed and TR-FRET was measured in an EnVision plate reader (PerkinElmer). FRET ratio data was normalized to signal from lysates treated with DMSO vehicle control and plotted as percent inhibition against 10-point; 3-fold dilution series of inhibitors. IC50 values were calculated using 4-parameter logistical fitting in XLFit.

[2] = target: T1, EIF2AK3 (PERK) catalytic domain (amino acids 536-1116) (Homo sapiens, UniProt Q9NZJ5); experiment: PERK in vitro activity assay (isolated), TR-FRET kinase assay; format: biochemical; settings: isolated PERK enzyme, 1.5 μM ATP; read-out: Biochemical IC50
T1 construct: EIF2AK3 (PERK) catalytic domain (amino acids 536-1116)
T1 sequence (Q9NZJ5 536-1116): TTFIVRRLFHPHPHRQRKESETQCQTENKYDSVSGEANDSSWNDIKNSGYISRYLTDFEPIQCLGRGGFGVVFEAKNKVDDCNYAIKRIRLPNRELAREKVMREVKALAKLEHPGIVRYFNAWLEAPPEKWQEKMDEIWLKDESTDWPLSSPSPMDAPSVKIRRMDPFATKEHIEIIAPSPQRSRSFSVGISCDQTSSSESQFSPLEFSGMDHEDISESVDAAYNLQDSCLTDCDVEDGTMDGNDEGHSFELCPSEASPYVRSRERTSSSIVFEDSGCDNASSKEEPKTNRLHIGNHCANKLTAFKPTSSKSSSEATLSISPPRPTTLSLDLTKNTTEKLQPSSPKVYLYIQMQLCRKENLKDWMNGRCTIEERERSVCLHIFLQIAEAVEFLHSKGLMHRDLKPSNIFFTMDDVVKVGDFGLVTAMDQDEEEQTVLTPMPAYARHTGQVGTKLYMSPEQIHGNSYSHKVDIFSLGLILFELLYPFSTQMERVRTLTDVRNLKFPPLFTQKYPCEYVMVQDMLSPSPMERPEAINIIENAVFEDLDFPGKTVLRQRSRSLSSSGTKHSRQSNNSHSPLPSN
Excerpt: PERK In Vitro Activity Assay (Isolated):
In vitro Inhibition of PERK Enzyme Activity (isolated) Recombinant human EIF2AK2 (PKR) catalytic domain (amino acids 252-551), EIF2AK3 (PERK) catalytic domain (amino acids 536-1116), GFP-eIF2a substrate, and Terbium-labelled phospho-eIF2a antibody is obtained (Invitrogen, Carlsbad, Calif.).
Express and purify HIS-SUMO-GCN2 catalytic domain (amino acids 584-1019) from E. coli. Perform TR-FRET kinase assays in the absence or presence of inhibitors in a reaction buffer consisting of 50 mM HEPES, pH 7.5, 10 mM MgCb, 1.0 mM EGTA, and 0.01% Brij-35, and 100-200 nM GFP-eIF2a substrate. […] Add test compound, initiate the reaction by addition of enzyme, and incubate at room temperature for 45 minutes. Stop the reaction by addition of EDTA to a final concentration of 10 mM, add Terbium-labelled phospho-eIF2a antibody at a final concentration of 2 nM, and incubate for 90 minutes. Monitor the resulting fluorescence in an EnVison® Multilabel reader (PerkinElmer, Waltham, Mass.). Determine TR-FRET ratios and the resulting IC50 values using a 4-parameter nonlinear logistic equation as shown: Y=(A+((B−A)/(1+((C/x)[…])))) where, Y=% specific inhibition, A=Bottom of the curve, B=Top of the curve, C=absolute IC50 (concentration causing 50% inhibition), and D=hill slope.

Row | IC50 [2] | SMILES | IC50 [1] | IC50 ([1]; Homo sapiens, HEK293, 2 h)
1 | 251 to 500 nM | Cc1nc(N)c2c(-c3ccc(NC(=O)C(O)c4cc(F)cc(C(F)(F)F)c4)c(F)c3F)cn(C)c2n1 (single isomer, unassigned) [Example 116, N-(4-(4-amino-2,7-dimethyl-7H-pyrrolo[2,3-d]pyrimidin-5-yl)-2,3-difluorophenyl)-2-(3-fluoro-5-(trifluoromethyl)phenyl)-2-hydroxyacetamide] | 251 to 500 nM | 
2 | 1 to 25 nM | Cc1nc(N)c2c(-c3cc(F)c(NC(=O)C(O)c4cccc(F)c4)cc3C)cn(C)c2n1 (single isomer, unassigned) [Example 121, N-(4-(4-amino-2,7-dimethyl-7H-pyrrolo[2,3-d]pyrimidin-5-yl)-2-fluoro-5-methylphenyl)-2-(3-fluorophenyl)-2-hydroxyacetamide] | 26 to 50 nM | 
3 | 101 to 250 nM | Cc1nc(N)c2c(-c3cc(F)c(NC(=O)C(O)c4cccc(F)c4)cc3C)cn(C)c2n1 (single isomer, unassigned) [Example 122, N-(4-(4-amino-2,7-dimethyl-7H-pyrrolo[2,3-d]pyrimidin-5-yl)-2-fluoro-5-methylphenyl)-2-(3-fluorophenyl)-2-hydroxyacetamide] | 1000 to 2000 nM | 
4 | 26 to 50 nM | Cc1nc(N)c2c(-c3ccc(NC(=O)C(O)c4cccc(F)c4)cc3)cn(C)c2n1 (centres unmarked) [Example 24, N-(4-(4-amino-2,7-dimethyl-7H-pyrrolo[2,3-d]pyrimidin-5-yl)phenyl)-2-(3-fluorophenyl)-2-hydroxyacetamide] | 1000 to 2000 nM | 
5 | 101 to 250 nM | Cc1cc(NC(=O)C(O)c2cccc(F)c2)ccc1-c1cn(C)c2nc(C(C)C)nc(N)c12 (centres unmarked) [Example 25, N-(4-(4-amino-2-isopropyl-7-methyl-7H-pyrrolo[2,3-d]pyrimidin-5-yl)-3-methylphenyl)-2-(3-fluorophenyl)-2-hydroxyacetamide] |  | > 5000 nM
6 | 26 to 50 nM | Cc1cc(NC(=O)[C@H](N)c2ccccc2)ccc1-c1cn(C)c2ncnc(N)c12 [Example 26, (R)-2-amino-N-(4-(4-amino-7-methyl-7H-pyrrolo[2,3-d]pyrimidin-5-yl)-3-methylphenyl)-2-phenylacetamide] |  | 501 to 1000 nM
7 | 101 to 250 nM | Cc1cc(NC(=O)C(N)c2ccccc2)ccc1-c1cn(C)c2ncnc(N)c12 (centres unmarked) [Example 27, 2-amino-N-(4-(4-amino-7-methyl-7H-pyrrolo[2,3-d]pyrimidin-5-yl)-3-methylphenyl)-2-phenylacetamide] |  | 251 to 500 nM

Second part, the molecule before the results:

Row | SMILES | IC50 [2] | IC50 [1] | IC50 ([1]; Homo sapiens, HEK293, 2 h)
8 | Cc1cc(NC(=O)C(O)c2ccccc2)ccc1-c1cn(C)c2ncnc(N)c12 (centres unmarked) [Example 5, N-(4-(4-amino-7-methyl-7H-pyrrolo[2,3-d]pyrimidin-5-yl)-3-methylphenyl)-2-hydroxy-2-phenylacetamide] | 1 to 25 nM | 26 to 50 nM | 
9 | Cc1cc(NC(=O)C(C)(O)c2ccccc2)ccc1-c1cn(C)c2ncnc(N)c12 (centres unmarked) [Example 7, N-(4-(4-amino-7-methyl-7H-pyrrolo[2,3-d]pyrimidin-5-yl)-3-methylphenyl)-2-hydroxy-2-phenylpropanamide] | 51 to 100 nM |  | 101 to 250 nM
10 | COC(C(=O)Nc1ccc(-c2cn(C)c3ncnc(N)c23)c(C)c1)c1ccccc1 (centres unmarked) [Example 8, N-(4-(4-amino-7-methyl-7H-pyrrolo[2,3-d]pyrimidin-5-yl)-3-methylphenyl)-2-methoxy-2-phenylacetamide] | 1 to 25 nM |  | 101 to 250 nM
11 | Cc1cc(NC(=O)C(O)c2cccc(F)c2)ccc1-c1cn(C)c2ncnc(N)c12 (centres unmarked) [Example 10, N-(4-(4-amino-7-methyl-7H-pyrrolo[2,3-d]pyrimidin-5-yl)-3-methylphenyl)-2-(3-fluorophenyl)-2-hydroxyacetamide] | 1 to 25 nM | 51 to 100 nM | 
12 | Cc1cc(NC(=O)C(O)c2cccc(F)c2)ccc1-c1cn(C)c2ncnc(N)c12 (centres unmarked) [Example 11, N-(4-(4-amino-7-methyl-7H-pyrrolo[2,3-d]pyrimidin-5-yl)-3-methylphenyl)-2-(3-fluorophenyl)-2-hydroxyacetamide] | 1 to 25 nM | 1 to 25 nM | 
13 | Cc1nc(N)c2c(-c3ccc(NC(=O)C(O)c4cccc(F)c4)c(F)c3C)cn(C)c2n1 (centres unmarked) [Example 12, N-(4-(4-amino-2,7-dimethyl-7H-pyrrolo[2,3-d]pyrimidin-5-yl)-2-fluoro-3-methylphenyl)-2-(3-fluorophenyl)-2-hydroxyacetamide] | 1 to 25 nM | 1 to 25 nM | 
14 | Cc1nc(N)c2c(-c3ccc(NC(=O)C(O)c4cccc(F)c4)c(F)c3C)cn(C)c2n1 (centres unmarked) [Example 13, N-(4-(4-amino-2,7-dimethyl-7H-pyrrolo[2,3-d]pyrimidin-5-yl)-2-fluoro-3-methylphenyl)-2-(3-fluorophenyl)-2-hydroxyacetamide] | 51 to 100 nM | 1000 to 2000 nM | 
15 | Cn1cc(-c2ccc(NC(=O)C(O)c3cccc(F)c3)cc2Cl)c2c(N)ncnc21 (centres unmarked) [Example 14, N-(4-(4-amino-7-methyl-7H-pyrrolo[2,3-d]pyrimidin-5-yl)-3-chlorophenyl)-2-(3-fluorophenyl)-2-hydroxyacetamide] | 1 to 25 nM | 1 to 25 nM | 
16 | Cn1cc(-c2ccc(NC(=O)C(O)c3cccc(F)c3)cc2Cl)c2c(N)ncnc21 (centres unmarked) [Example 15, N-(4-(4-amino-7-methyl-7H-pyrrolo[2,3-d]pyrimidin-5-yl)-3-chlorophenyl)-2-(3-fluorophenyl)-2-hydroxyacetamide] | 26 to 50 nM | 51 to 100 nM | 
17 | Cn1cc(-c2ccc(NC(=O)C(O)c3cccc(F)c3)cc2C(F)(F)F)c2c(N)ncnc21 (centres unmarked) [Example 16, N-(4-(4-amino-7-methyl-7H-pyrrolo[2,3-d]pyrimidin-5-yl)-3-(trifluoromethyl)phenyl)-2-(3-fluorophenyl)-2-hydroxyacetamide] | 1 to 25 nM |  | 101 to 250 nM
18 | CCc1cc(NC(=O)C(O)c2cccc(F)c2)ccc1-c1cn(C)c2ncnc(N)c12 (centres unmarked) [Example 17, N-(4-(4-amino-7-methyl-7H-pyrrolo[2,3-d]pyrimidin-5-yl)-3-ethylphenyl)-2-(3-fluorophenyl)-2-hydroxyacetamide] | 1 to 25 nM |  | 1 to 25 nM
19 | Cn1cc(-c2ccc(NC(=O)C(O)c3cccc(F)c3)cc2OC(F)(F)F)c2c(N)ncnc21 (centres unmarked) [Example 18, N-(4-(4-amino-7-methyl-7H-pyrrolo[2,3-d]pyrimidin-5-yl)-3-(trifluoromethoxy)phenyl)-2-(3-fluorophenyl)-2-hydroxyacetamide] | 1 to 25 nM |  | 101 to 250 nM
20 | Cc1nc(N)c2c(-c3ccc(NC(=O)C(O)c4cccc(F)c4)cc3C(F)(F)F)cn(C)c2n1 (centres unmarked) [Example 19, N-(4-(4-amino-2,7-dimethyl-7H-pyrrolo[2,3-d]pyrimidin-5-yl)-3-(trifluoromethyl)phenyl)-2-(3-fluorophenyl)-2-hydroxyacetamide] | 1 to 25 nM | 101 to 250 nM | 
21 | Cc1nc(N)c2c(-c3ccc(NC(=O)C(O)c4cccc(F)c4)cc3C(F)(F)F)cn(C)c2n1 (centres unmarked) [Example 20, N-(4-(4-amino-2,7-dimethyl-7H-pyrrolo[2,3-d]pyrimidin-5-yl)-3-(trifluoromethyl)phenyl)-2-(3-fluorophenyl)-2-hydroxyacetamide] | 51 to 100 nM | 1000 to 2000 nM | 
22 | Cc1nc(N)c2c(-c3ccc(NC(=O)C(O)c4cccc(F)c4)cc3)cn(C)c2n1 (centres unmarked) [Example 23, N-(4-(4-amino-2,7-dimethyl-7H-pyrrolo[2,3-d]pyrimidin-5-yl)phenyl)-2-(3-fluorophenyl)-2-hydroxyacetamide] | 1 to 25 nM |  | 501 to 1000 nM
